Assay results as given in patent publication US20250152564A1, “PROPYLENE KETONE-CONTAINING BIOINHIBITOR, PREPARATION METHOD THEREFOR, AND USE THEREOF” (SHANGHAI HANSOH BIOMEDICAL CO., LTD., priority 2022, published 2025).
pIC50: −log10 of the molar value.

Key:
[1] = tested on: BaF3 FGFR2-BICC1 V564F cells; assay: CellTiter-Glo cell proliferation inhibition, BaF3 FGFR2-BICC1 V564F; format: cell-based; details: Mus musculus, 72 h, read-out: BaF3 FGFR2-BICC1 V564F inhibitory activity IC50
In short: (§1)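 Cells plated, compound added next day as 9-point 3-fold series from 1000 nM to 0.15 nM, incubated 72 h. Viability by CellTiter-Glo luminescence; IC50 from four-parameter variable-slope fit of percent inhibition.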

FGFR1 = FGFR1 (Homo sapiens (Human), UniProt P11362); assay: TR-FRET kinase inhibition assay, FGFR1; format: biochemical; details: ATP Km concentration (30 μM)
Chain of FGFR1 (P11362 478-767): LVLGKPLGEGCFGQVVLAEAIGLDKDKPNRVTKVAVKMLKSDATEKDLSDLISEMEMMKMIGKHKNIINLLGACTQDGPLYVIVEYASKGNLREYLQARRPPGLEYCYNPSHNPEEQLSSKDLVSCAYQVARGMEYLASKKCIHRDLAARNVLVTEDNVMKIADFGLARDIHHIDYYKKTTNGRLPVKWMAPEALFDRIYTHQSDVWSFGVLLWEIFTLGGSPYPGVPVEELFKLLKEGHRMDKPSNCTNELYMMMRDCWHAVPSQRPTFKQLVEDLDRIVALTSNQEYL
In short: (§2)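 Kinase-domain fragments in 50 mM HEPES pH 7.5 with 10 mM MgCl2, ATP at Km plus peptide substrate; 60 min reaction at room temperature, then EDTA/Eu-anti-phosphotyrosine (PT66) detection for 60 min (30 min for V564F). 11-point 3-fold dilutions from 1000 nM; IC50 from four-parameter fit of 665/620 nm ratio inhibition.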

FGFR3 = FGFR3 (Homo sapiens (Human), UniProt P22607); assay: TR-FRET kinase inhibition assay, FGFR3; format: biochemical; details: ATP Km concentration (30 μM)
Chain of FGFR3 (P22607 472-761): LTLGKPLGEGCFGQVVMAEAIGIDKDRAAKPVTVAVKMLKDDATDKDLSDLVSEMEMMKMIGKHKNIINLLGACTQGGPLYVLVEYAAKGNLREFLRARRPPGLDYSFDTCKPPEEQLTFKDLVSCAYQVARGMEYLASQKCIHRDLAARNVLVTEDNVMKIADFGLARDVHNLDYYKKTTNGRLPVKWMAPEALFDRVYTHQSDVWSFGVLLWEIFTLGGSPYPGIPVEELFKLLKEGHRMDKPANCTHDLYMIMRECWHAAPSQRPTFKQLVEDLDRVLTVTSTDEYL
Description: To measure the IC50 values of the compounds against FGFR1, FGFR2, FGFR3, FGFR4, and FGFR2 V564F at ATP Km concentrations by TR-FRET method.
TR-FRET (time-resolved fluorescence resonance energy transfer) method was used to detect the inhibitory activity of the compounds on FGFR1, FGFR2, FGFR3, FGFR4, and FGFR2 V564F kinase region fragments. The highest detection concentration of the compounds in 5 kinase experiments was 1000 nM, which was diluted in 3 folds, with a total of 11 concentrations (1000 nM to 0.017 nM). A kinase buffer (50 mM HEPES pH 7.5, 1 mM EGTA, 10 mM MgCl2, 2 mM DTT, and 0.01% Tween-20) was used to prepare 4× enzyme solution, 4× compound solutions diluted in gradient, and a 2×ATP/Peptide substrate solution. To a 384-well plate, 2.5 μL of enzyme solution and 2.5 μL of diluted […] compound solution were added, and 5 μL of 2×ATP/Peptide substrate solution was then added. After reacting at room temperature for 60 minutes for FGFR1, FGFR2, FGFR3, and FGFR2 V564F kinases, and 120 minutes for FGFR4 kinase, 10 μL of a 2× termination and detection mixed liquid prepared with 1×LANCE detection buffer with an EDTA concentration of 20 mM and a Europium-anti-phosphotyrosine (PT66) concentration of 2 nM was added to each well of the plate. After reacting at room temperature for 60 minutes for FGFR1, FGFR2, FGFR3, and FGFR4, and 30 minutes for FGFR2 V564F, the fluorescence signal value in each well of the plate was measured by a microplate reader.
1) Inhibition rate (%): Calculation was performed on the raw data (665 nm/620 nm reading ratio) according to the following formula to obtain the inhibition rate. Inhibition rate %=[(mean value in positive control well−value in sample well)/(mean value in positive control well−mean value in negative control well)]×100, wherein the positive control well was a reaction well without a compound […], and the negative control well was a reaction wells without an enzyme.
2) Curve fitting: Log(inhibitor) vs. response—Variable slope (four parameters) in GraphPad Prism 6 was used for fitting equation analysis of the compound concentration and the corresponding inhibition rate, and the curve was fitted to obtain the IC50 values of the compounds.

[2] = Pharmacokinetic experiment in SD rats after oral administration; format: in vivo; details: 5 mg/kg, plasma; for AUC(0-t) / AUC(0-inf) / half-life / MRT / Cmax: male, Sprague-Dawley (SD), rat, po; for AUC(0-t): read-out: Area under the curve AUC0-t; for AUC(0-inf): read-out: Area under the curve AUC0-∞; for half-life: read-out: Half-life t1/2 (converted); for MRT: read-out: Mean residence time MRT; for Cmax: read-out: Plasma concentration Cmax; for Time to peak tmax: p.o.
FGFR2 V564F = FGFR2 V564F (Homo sapiens (Human), UniProt P21802, V564F); assay: TR-FRET kinase inhibition assay, FGFR2 V564F; format: biochemical; details: ATP Km concentration (20 μM)
Chain of FGFR2 V564F (P21802 481-770 V564F): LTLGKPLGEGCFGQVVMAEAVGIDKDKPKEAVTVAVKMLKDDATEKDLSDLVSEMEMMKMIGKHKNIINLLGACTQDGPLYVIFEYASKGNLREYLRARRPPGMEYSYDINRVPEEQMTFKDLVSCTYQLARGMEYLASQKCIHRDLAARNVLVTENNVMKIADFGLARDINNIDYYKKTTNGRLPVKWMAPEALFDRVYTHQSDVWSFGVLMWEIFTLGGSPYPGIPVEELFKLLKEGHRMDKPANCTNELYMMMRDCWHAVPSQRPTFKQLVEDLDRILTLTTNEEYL
In short: as §2

NCI-H716 cells = assay: CellTiter-Glo cell proliferation inhibition, NCI-H716; format: cell-based; details: Homo sapiens, 72 h, read-out: NCI-H716 cell proliferation inhibition rate IC50
In short: as §1

FGFR2 = FGFR2 (Homo sapiens (Human), UniProt P21802); assay: TR-FRET kinase inhibition assay, FGFR2; format: biochemical; details: ATP Km concentration (30 μM)
Chain of FGFR2 (P21802 481-770): as the sequence (P21802 481-770 V564F) above, with F84V counted along it
In short: as §2

Compound | pIC50 [1] | pIC50 (FGFR1) | pIC50 (FGFR3) | AUC(0-t) [2] [ng·h/mL] | AUC(0-inf) [2] [ng·h/mL] | half-life [2] [h] | MRT [2] [h] | Cmax [2] [ng/mL] | Time to peak tmax [2] [h] | pIC50 (FGFR2 V564F) | pIC50 (NCI-H716 cells) | pIC50 (FGFR2)
C=CC(=O)N1CC[C@H](n2nc(C#Cc3ccc4cn(C)nc4c3)c3c(N)ncc(C(C)=O)c32)C1 [Example 82, (S)-1-(3-(7-acetyl-4-amino-3-((2-methyl-2H-indazol-6-yl)alkynyl)-1H-pyrazolo[4,3-c]pyridin-1-yl)pyrrolidine-1-methyl)prop-2-en-1-one] | 9.30 | 8.85 | 9.30 | 2800 | 2910 | 1.4 | 3.05 | 677 | 1 | 9.52 | 9.68 | 9.52
C=CC(=O)N1CC[C@H](n2nc(C#Cc3ccc4ccnn4c3)c3c(N)ncc(C(=O)CC)c32)C1 [Example 72, (S)-1-(3-(4-amino-7-propionyl-3-(pyrazolo[1,5-a]pyridine-6-ethynylene)-1H-pyrazolo[4,3-c]pyridin-1-yl)pyrrolidine-1-methyl)prop-2-en-1-one] | 8.82 | 8.14 | 8.80 | 1150 | 1150 | 0.6 | 2.26 | 298 | 0.5 | 8.68 | 8.71 | 8.85
